Data from patent publication US8134032B2, “Crystalline modifications of (1R,2R)-3-(3-dimethylamino-1-ethyl-2-methyl-propyl)-phenol” (priority 2007, dated 2012).

Columns and labels:
Type in all cases: physicochemical
[1] = dynamic vapor sorption (DVS); conditions: 25° C.; for changes in mass (DVS): dynamic mode, 5% relative air humidity/hour; for hygroscopicity: DVS
Experimental: Crystalline modifications A and B of (1R,2R)-3-(3-dimethylamino-1-ethyl-2-methyl-propyl)-phenol were each characterized by dynamic vapor sorption (DVS). The analyses were recorded in dynamic mode (5% relative air humidity/hour).
The DVS cycles are reversible.

[2] = rate of dissolution in water, second determination (tablets); conditions: for rate of dissolution: tablets, in water
Experimental: (§1) To analyse the rate of dissolution of modifications A and B in water, two different determinations were carried out.

[3] = mechanical stress: ball mill grinding and tablet compaction (Example 8); conditions: for modification obtained after tablet compaction: IR tablet press, pressure 10 t, 30 min; for modification obtained after grinding in ball mill: shaking frequency 30 sec^-1, RT, 2x90 min, 1x60 min
Experimental: The effect of mechanical stress from grinding with a ball mill (model Retsch MM200, agate vessel and agate ball with 5 mm diameter) and from pressure during the production of a tablet was analysed.
8.1) A tablet was produced with 100 mg (1) on an IR tablet press (pressure 10 t, 30 min).
8.4) 15 mg of the crystalline form A were ground in a ball mill (shaking frequency: 30 sec^−1, RT) as follows: 2×90 min, 1×60 min, 2×30 min discontinuation.

solubility in solvents = conditions: in saturated hydrocarbons (n-pentane, n-hexane, n-heptane) and water
Text: Conventional organic solvents known to persons skilled in the art may be used as solvents in a solution of this type, in particular alcohols such as methanol, ethanol, 1-propanol and 2-propanol, esters such as ethyl acetate, ketones such as acetone and ethylmethyl ketone, ethers such as diethyl ether, tert-butyl methyl ether, 1,4-dioxane and tetrahydrofuran, nitriles such as acetonitrile, chlorinated hydrocarbons such as dichloromethane, aromatic hydrocarbons such as toluene, and also dimethyl formamide and dimethyl sulfoxide.

[4] = physical stability of amorphous modification (Example 7)
Experimental: Attempts were made to produce the amorphous modification of (1R,2R)-3-(3-dimethylamino-1-ethyl-2-methyl-propyl)-phenol by evaporation, lyophilization or melting.
7.1) 150 mg (1) were dissolved in 3 ml MeOH. The solvent was removed on a rotary evaporator. A colourless oil remained. The residue was dried in a vacuum.
7.2) 150 mg (1) were dissolved in 2 ml 1,4-dioxane. The solvent was removed by freeze-drier.
7.3) 150 mg (1) were dissolved in 2 ml 1,4-dioxane. The solvent was removed by freeze-drier (−85° C., 0.5 mbar). A colourless residue remained and crystallized spontaneously before it was possible to perform a PXRD analysis. […] The melt was frozen with dry ice. An amorphous film was obtained which crystallized within 1 hour.

[5] = crystallization of amorphous oily residues on storage (Example 1); conditions: stored at RT or at 5° C.
Experimental: Amorphous (1R,2R)-3-(3-dimethylamino-1-ethyl-2-methyl-propyl)-phenol was obtained by rapid evaporation of a solution of the compound on a rotary evaporator. The oily residues were stored at RT or at 5° C. All the samples crystallized within 24 hours.

[6] = rate of dissolution in water, first determination (stirred suspension); conditions: particle size distribution not taken into account
Experimental: as §1
Under these conditions, the particle size affects the result.

[7] = relative thermodynamic stability, suspension of mixtures of modifications A and B (Example 9); conditions: temperature range of 5-85° C., preferably 5-50° C.
Experimental: The suspension was shaken overnight in an Eppendorf Thermomixer at RT. The obtained solid was filtered out and characterized by FT Raman spectral analysis. […] The suspension was shaken overnight in an Eppendorf Thermomixer at RT. The resulting solid was filtered out and characterized by FT Raman spectral analysis. […] The suspension was stirred for three days at 5° C. The obtained solid was filtered out and characterized by FT Raman spectral analysis. […] The suspension was stirred overnight at 50° C. […] All solid components were dissolved. After cooling to RT, small amounts of a colourless solid were precipitated. The solvent was removed in a nitrogen flow. […]

[8] = suspension of modification B in various solvents (Example 6); conditions: 2 days; for modification obtained after suspension: stirred at RT
Experimental: It was possible to exclude the formation of solvates with the selected solvents.
6.1) 200 mg (1) were suspended in 500 μl TBME. The mixture was stirred at RT for a duration of 2 days and the resulting solid was filtered out.
6.2) 100 mg (1) were suspended in 500 μl heptane/TBME (1:1). The mixture was stirred at RT for a duration of 2 days and the resulting solid was filtered out.
6.3) 100 mg (1) were suspended in 500 μl H2O. The mixture was stirred at RT for a duration of 2 days and the resulting solid was filtered out.
6.4) 100 mg (1) were suspended in 500 μl IPE. The mixture was stirred at RT for a duration of 2 days and the resulting solid was filtered out.
6.5) 100 mg (1) were suspended in 500 μl H2O/EtOH. The mixture was stirred at RT for a duration of 2 days and the resulting solid was filtered out.

CC[C@@H](c1cccc(O)c1)[C@@H](C)CN(C)C [modification A, (1R,2R)-3-(3-dimethylamino-1-ethyl-2-methyl-propyl)-phenol]
changes in mass (DVS) [1]: 0.8%
hygroscopicity [1]: not or at most slightly hygroscopic
polymorphic conversion during dissolution determination ([2]; tablets in water, analysed with FT Raman): converted into form B
rate of dissolution [2]: 0.003 mg/min cm^2
modification obtained after tablet compaction [3]: Modification A
modification obtained after grinding in ball mill [3]: converted into modification B
modification obtained after grinding in ball mill ([3]; listed as form A): Modification B

CC[C@@H](c1cccc(O)c1)[C@@H](C)CN(C)C [(1R,2R)-3-(3-dimethylamino-1-ethyl-2-methyl-propyl)-phenol]
solubility (solubility in solvents): only poorly soluble

CC[C@@H](c1cccc(O)c1)[C@@H](C)CN(C)C [amorphous modification, (1R,2R)-3-(3-dimethylamino-1-ethyl-2-methyl-propyl)-phenol]
crystallization of amorphous samples ([4]; amorphous samples from evaporation, lyophilization or melting): crystallized within hours
time until amorphous film crystallized ([4]; melted at 88-91° C., melt frozen with dry ice): ≤ 1 h
time until amorphous oily residues crystallized [5]: ≤ 24 h

CC[C@@H](c1cccc(O)c1)[C@@H](C)CN(C)C [modification B, (1R,2R)-3-(3-dimethylamino-1-ethyl-2-methyl-propyl)-phenol]
changes in mass (DVS) [1]: 0.3%
hygroscopicity [1]: not or at most slightly hygroscopic
rate of dissolution, comparison of forms [6]: dissolves more rapidly
rate of dissolution [2]: 0.003 mg/min cm^2
modification obtained after tablet compaction ([3]; listed as (1)): Modification B
modification obtained after grinding in ball mill [3]: Modification B
thermodynamic stability of the form [7]: most thermodynamically stable form
modification obtained after suspension ([8]; H2O): modification B
modification obtained after suspension ([8]; H2O/EtOH): modification B
modification obtained after suspension ([8]; IPE): modification B
modification obtained after suspension ([8]; TBME): modification B
modification obtained after suspension ([8]; heptane/TBME (1:1)): modification B
change upon suspension in various solvents ([8]; various solvents, RT): no change
